#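 In this assay, cells in 96-well plates receive the compound at five concentrations for 48 hours. Endpoints are linearly interpolated between the surrounding concentrations. TGI: concentration producing complete growth inhibition.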
# Columns and labels:
# Experiment in all cases: DTP human tumour cell line panel, 48 h
# OVCAR-3 ovarian = system: OVCAR-3 ovarian
# OVCAR-5 ovarian = system: OVCAR-5 ovarian
# MDA-MB-435 = system: MDA-MB-435
# SK-MEL-28 melanoma = system: SK-MEL-28 melanoma
# OVCAR-8 ovarian = system: OVCAR-8 ovarian
# HCC-2998 colon = system: HCC-2998 colon
# NCI-H522 lung = system: NCI-H522 lung
# KM12 colon = system: KM12 colon
# UACC-257 melanoma = system: UACC-257 melanoma
# MDA-N = system: MDA-N
# SW-620 colon = system: SW-620 colon
# 786-0 renal = system: 786-0 renal
# UACC-62 melanoma = system: UACC-62 melanoma
# MALME-3M melanoma = system: MALME-3M melanoma
# M14 melanoma = system: M14 melanoma
# SNB-19 CNS = system: SNB-19 CNS
# NCI-H226 lung = system: NCI-H226 lung
# BT-549 breast = system: BT-549 breast
SMILES,TGI (OVCAR-3 ovarian) [µM],TGI (OVCAR-5 ovarian) [µM],TGI (MDA-MB-435) [µM],TGI (SK-MEL-28 melanoma) [µM],TGI (OVCAR-8 ovarian) [µM],TGI (HCC-2998 colon) [µM],TGI (NCI-H522 lung) [µM],TGI (KM12 colon) [µM],TGI (UACC-257 melanoma) [µM],TGI (MDA-N) [µM],TGI (SW-620 colon) [µM],TGI (786-0 renal) [µM],TGI (UACC-62 melanoma) [µM],TGI (MALME-3M melanoma) [µM],TGI (M14 melanoma) [µM],TGI (SNB-19 CNS) [µM],TGI (NCI-H226 lung) [µM],TGI (BT-549 breast) [µM]
N=c1oc2c(Br)cc(Br)cc2cc1C(=O)Nc1ccccn1,> 100,> 100,> 100,> 100,> 100,> 100,> 100,> 100,> 100,> 100,> 100,> 100,> 100,> 100,> 100,> 100,> 100,> 100
Cc1nn2c(=O)c([N+](=O)[O-])c(/C=C/c3ccco3)nc2s1,> 100,> 100,44.7,> 100,> 100,> 100,> 100,> 100,> 100,76.5,> 100,> 100,> 100,> 100,> 100,> 100,> 100,> 100
O=C1OC2C(O)COC2(O)C1(O)C(C[N+](=O)[O-])c1ccc(Cl)cc1 (configuration not stated),21.5,32.6,4.59,10.8,51.1,13.4,23.7,18.3,17.4,6.98,14.1,3.45,22.8,30.3,13.6,28.9,26.6,13.1
Cc1ccc(-c2cc(-c3ccc(Cl)cc3)nc(/N=C3\C(=O)N(CN4CCOCC4)c4ccccc43)n2)cc1,> 100,67.9,35,> 100,50.8,34,30.1,58.5,46.4,37.6,62.8,74.3,41.4,69.4,87.4,42.2,89.9,88.5
C/C(=C/c1ccccc1)CN(C(=O)/C=C\Sc1ccccc1)C(C)(C)C,> 100,> 100,> 100,> 100,> 100,> 100,> 46.4,> 100,> 100,> 100,> 100,> 100,> 100,> 100,> 100,> 100,> 100,> 100
CC(C)(C)N1C(=O)c2ccccc2C1(O)C(F)(F)F (configuration not stated),> 100,> 100,> 100,> 100,> 100,> 100,> 100,> 100,> 100,> 100,> 100,> 100,> 100,> 100,> 100,> 100,> 100,> 100
CC(C)/C(Cl)=N/OC(=O)Nc1cccc(C(F)(F)F)c1,8.12,34,26.9,10.9,31.8,30,0.951,29.8,29.5,23.7,1.8,7.52,27.6,3.66,13.3,34,30.7,15.6
C=CCOc1ccc(/C(N=Nc2ccc(C)cc2)=N/NC(=O)c2ccccc2)cc1OC,> 100,> 100,47.3,51.3,91.4,76.5,49.6,48.7,49.1,57.6,> 100,> 100,31.6,76.9,58.3,> 100,58.4,47.1
C=CC(CBr)CCC(Br)C(C)(C)Br (configuration not stated),> 10,> 10,> 10,> 10,> 10,> 10,> 10,> 10,> 10,> 10,> 10,> 10,–,> 10,> 10,> 10,> 10,> 10
C=C(C)CNC(=S)N(N)c1ccc(OC)cc1,> 100,> 100,> 100,> 100,> 100,> 100,> 100,> 100,> 100,> 100,> 100,> 100,67.7,> 100,> 100,> 100,> 100,> 100
COc1ccc2oc(=Nc3ccccc3)c(C(N)=O)cc2c1,> 100,> 100,> 24.4,> 100,> 100,> 100,> 100,> 100,> 100,> 100,> 100,> 100,–,> 100,> 100,> 45.1,> 100,> 100
CC(C)(C)OC(=O)[C@@H]1CCC(=S)N1Cc1ccccc1,> 100,> 100,> 100,> 100,> 100,> 100,> 100,> 100,> 100,> 100,> 100,> 100,> 100,> 100,> 100,> 100,> 100,> 100
Cc1c(-c2ccccc2)[nH]c2ccc(Cl)cc2c1=O,72,> 100,57.3,> 100,69.5,> 100,> 100,28.1,> 100,54.6,> 100,> 100,> 100,48.7,> 100,> 100,> 100,> 100

# — PubChem BioAssay (NCI)
